The nature of the data set: Rate of dissolution of model melanin and color of its solutions. Format: physicochemical, Aspergillus niger. Particulars: for Time of dissolution: model melanin; for Color of the solution: solution of model melanin.

In the case of `[Na+].[OH-]` [0.01 N sodium hydroxide, sodium hydroxide], the “pH of the solution” value is 9.5, the Time of dissolution came out at 6 min and the “Color of the solution” value was “Yellow-”.
As for `CC(=O)O` [0.01 N solution of acetic acid, acetic acid], the “pH of the solution” value is listed as 3.5. For the setting “not dissolved within this time”, the Time of dissolution entry is “Not dissolved in 5 hours”.
`N` [0.01% ammonia, ammonia]: the “pH of the solution” value is reported as 10.5, the Time of dissolution is 5 min and the “Color of the solution” value is “-”-”.
Consider `FC(F)(Br)C(F)(F)Br` [1,2-dibromtetrafluoroethane], for which the “pH of the solution” value worked out at 7, the Time of dissolution came to 5 min and the “Color of the solution” value was “Colorless”.
As to `OO` [4% solution of HP, hydrogen peroxide], the “pH of the solution” value worked out at 3.5. Besides, the Time of dissolution entry (not dissolved within this time) is reported as “Not dissolved in 5 hours”.
For `NCCO` [Monoethanolamine], the “pH of the solution” value amounted to 10, the Time of dissolution was 2 min and the “Color of the solution” value is “-”-”.
In the case of `FN(F)C1(C(F)(F)F)C(F)(F)C(F)(F)C(F)(F)C(F)(C(F)(F)F)C1(F)F` (stereo not drawn) [Perfluoro-1,3-dimethyl-cyclohexylamine], the “pH of the solution” value came to 7, the Time of dissolution was found to be 3 min and the “Color of the solution” value is reported as “Lemon”.
As for `FC1(F)C(F)(F)C(F)(F)C2(F)C(F)(F)C(F)(F)C(F)(F)C(F)(F)C2(F)C1(F)F` (stereo not drawn) [Perfluorodecalin (PFD), perfluorodecalin], the “pH of the solution” value amounted to 7 and the “Color of the solution” value is listed as “Colorless”. Besides, the Time of dissolution (1 mg/ml in PFOC) amounted to 0.5 min.
The like results for `FC(F)(F)C(F)(F)C(F)(F)N(C(F)(F)C(F)(F)C(F)(F)F)C(F)(F)C(F)(F)C(F)(F)F` [Tri(perfluoropropyl)amine (TPA), tri(perfluoropropyl)amine] were, in that order, 7, “Colorless” and 0.5 min.
In the case of `CCN(CC)CC` [Triethylamine], the “pH of the solution” value is 8. For the same molecule, for the setting “not dissolved within this time”, the Time of dissolution result was “Not dissolved in 5 hours”.

The record behind these values is patent publication US20040151679A1, “Dissolving agent for melanin” (priority 2001, published 2004).
